According to patent publication US7700609B2, “Compositions useful as inhibitors of protein kinases” (Vertex Pharmaceuticals Incorporated, priority 2003, dated 2010):

Key:
Itk [1] = target: T1, Itk (Homo sapiens, UniProt Q08881); experiment: Itk inhibition assay: radioactivity-based (Method A); format: biochemical; details: 15 μM ATP, read-out: IC50 in the radioactive incorporation assay (Method A)
T1 sequence (Q08881 1-620): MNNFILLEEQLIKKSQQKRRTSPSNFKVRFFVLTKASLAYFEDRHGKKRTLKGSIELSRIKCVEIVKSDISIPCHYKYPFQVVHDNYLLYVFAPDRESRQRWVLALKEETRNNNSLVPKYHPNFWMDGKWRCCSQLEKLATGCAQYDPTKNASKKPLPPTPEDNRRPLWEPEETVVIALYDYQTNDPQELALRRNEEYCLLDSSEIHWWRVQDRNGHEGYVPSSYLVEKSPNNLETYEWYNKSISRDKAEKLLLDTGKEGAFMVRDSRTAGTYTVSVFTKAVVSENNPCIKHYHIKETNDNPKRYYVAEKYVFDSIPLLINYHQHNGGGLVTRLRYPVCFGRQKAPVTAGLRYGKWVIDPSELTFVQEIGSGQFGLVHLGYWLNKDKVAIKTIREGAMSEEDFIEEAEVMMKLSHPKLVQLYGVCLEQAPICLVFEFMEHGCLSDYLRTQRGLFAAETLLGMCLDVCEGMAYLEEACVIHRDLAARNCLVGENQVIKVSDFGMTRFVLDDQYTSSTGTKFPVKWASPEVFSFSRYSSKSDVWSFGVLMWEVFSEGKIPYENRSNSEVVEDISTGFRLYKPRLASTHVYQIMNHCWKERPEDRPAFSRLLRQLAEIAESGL
Protocol: (§1) The compounds of the present invention were evaluated as inhibitors of human Itk kinase using either a radioactivity-based, spectrophotometric or alphascreen assay.
Assays were carried out in a mixture of 100 mM HEPES (pH 7.5), 10 mM MgCl2, 25 mM NaCl, 0.01% BSA and 1 mM DTT. Final substrate concentrations were 15 μM [γ-^33P]ATP (400 μCi ^33P ATP/μmol ATP, Amersham Pharmacia Biotech/Sigma Chemicals) and 2 μM peptide (SAM68 protein Δ332-443). Assays were carried out at 25° C. in the presence of 30 nM Itk. An assay stock buffer solution was prepared containing all of the reagents listed above, with the exception of ATP and the test compound of interest. 50 μL of the stock solution was placed in a 96 well plate followed by addition of 1.5 μL of DMSO stock containing serial dilutions of the test compound (typically starting from a final concentration of 15 μM with 2-fold serial dilutions) in duplicate (final DMSO concentration 1.5%). The plate was pre-incubated for 10 minutes at 25° C. and the reaction initiated by addition of 50 μL [γ-^33P]ATP (final concentration 15 μM).
The reaction was stopped after 10 minutes by the addition of 50 μL of a TCA/ATP mixture (20% TCA, 0.4 mM ATP). A Unifilter GF/C 96 well plate (Perkin Elmer Life Sciences, Cat no. 6005174) was pretreated with 50 μL Milli Q water prior to the addition of the entire reaction mixture (150 μL). The plate was washed with 200 μL Milli Q water followed by 200 μL of a TCA/ATP mixture (5% TCA, 1 mM ATP). This wash cycle was repeated a further 2 times. After drying, 30 μL Optiphase ‘SuperMix’ liquid scintillation cocktail (Perkin Elmer) was added to the well prior to scintillation counting (1450 Microbeta Liquid Scintillation Counter, Wallac).
IC50 data were calculated from non-linear regression analysis of the initial rate data using the Prism software package (GraphPad Prism version 3.0cx for Macintosh, GraphPad Software, San Diego Calif., USA).

Itk [2] = target: T1, Itk; experiment: Itk inhibition assay: Alphascreen (Method B); format: biochemical; details: 100 μM ATP
Protocol: as §1
Assays were carried out in a mixture of 20 mM MOPS (pH 7.0), 10 mM MgCl2, 0.1% BSA and 1 mM DTT. Final substrate concentrations in the assay were 100 μM ATP (Sigma Chemicals) and 2 μM peptide (Biotinylated SAM68 Δ332-443). Assays were carried out at 25° C. and in the presence of 10 nM Itk. An assay stock buffer solution was prepared containing all of the reagents listed above, with the exception of ATP and the test compound of interest. 25 μL of the stock solution was placed in each well of a 96 well plate followed by 1 μL of DMSO containing serial dilutions of the test compound (typically starting from a final concentration of 15 μM) in duplicate (final DMSO concentration 2%). The plate was preincubated for 10 minutes at 25° C. and the reaction initiated by addition of 25 μL ATP (final concentration 100 μM). Background counts were determined by the addition of 5 μL 500 mM EDTA to control wells containing assay stock buffer and DMSO prior to initiation with ATP. The reaction was stopped after 30 minutes by diluting the reaction 225-fold into MOPS buffer (20 mM MOPS (pH 7.0), 1 mM DTT, 10 mM MgCl2, 0.1% BSA) containing 50 mM EDTA to bring the final concentration of peptide to 9 nM.
AlphaScreen™ reagents were prepared according to the manufacturers instructions (AlphaScreen™ phosphotyrosine (P-Tyr-100) assay kit, PerkinElmer catalogue number 6760620C). Under subdued lighting, 20 μL of AlphaScreen™ reagents were placed in each well of a white half area 96 well plate (Corning Inc.—COSTAR 3693) with 30 μL of the stopped, diluted kinase reactions. Plates were incubated in the dark for 60 minutes prior to reading on a Fusion Alpha plate reader (PerkinElmer).
After removing mean background values for all of the data points, Ki(app) data were calculated from non-linear regression analysis using the Prism software package (GraphPad Prism version 3.0cx for Macintosh, GraphPad Software, San Diego Calif., USA).

`NS(=O)(=O)c1cccc(Nc2ncc3c(n2)-c2cc(-c4ccccc4OC(F)(F)F)sc2CC3)c1` [Compound I-28] was tested, and the IC50 (Itk [1]) was less than 1000 nM.

For `NS(=O)(=O)c1cccc(Nc2ncc3c(n2)-c2cc(-c4ccccc4)sc2CC3)c1` [Compound I-1], the IC50 (Itk [1]) was less than 1000 nM.

For `COc1ccc(OC)c(-c2cc3c(s2)CCc2cnc(Nc4cccc(S(N)(=O)=O)c4)nc2-3)c1` [Compound I-20], the IC50 (Itk [1]) was less than 1000 nM.

`COc1cccc(-c2cc3c(s2)CCc2cnc(Nc4cccc(S(C)(=O)=O)c4)nc2-3)c1` [Compound I-24] showed an IC50 (Itk [1]) of less than 1000 nM.

`NS(=O)(=O)c1cccc(Nc2ncc3c(n2)-c2cc(-c4cccnc4)sc2CC3)c1` [Compound I-3] was tested, and the IC50 (Itk [1]) was less than 1000 nM.

In the case of `COc1cccc(-c2cc3c(s2)CCc2cnc(Nc4ccc(S(C)(=O)=O)cc4)nc2-3)c1` [Compound I-25], the IC50 (Itk [1]) is reported as less than 1000 nM.

Compound `NS(=O)(=O)c1cccc(Nc2ncc3c(n2)-c2cc(-c4cccc(C(=O)O)c4)sc2CC3)c1` [Compound I-4] has an IC50 (Itk [1]) of less than 1000 nM.

Compound `NS(=O)(=O)c1cccc(Nc2ncc3ccc4sc(C(=O)N5CCOCC5)cc4c3n2)c1` [Compound V-37] has a Ki (Itk [2]) of less than 1000 nM.

`CC(C)(C)C(=O)OCc1nc2ccc3cnc(Nc4cccc(S(N)(=O)=O)c4)nc3c2s1` [II-36] showed a Ki (Itk [2]) of less than 1000 nM.

In the case of `NS(=O)(=O)c1cccc(Nc2ncc3c(n2)-c2cc(-c4ccccc4CO)sc2CC3)c1` [Compound I-29], the IC50 (Itk [1]) is reported as less than 1000 nM.

`CNCCNC(=O)c1cc2c(ccc3cnc(Nc4cccc(S(N)(=O)=O)c4)nc32)s1` [Compound V-43] gave a Ki (Itk [2]) of less than 1000 nM.

Compound `COc1ccc(-c2cc3c(s2)CCc2cnc(Nc4cccc(S(N)(=O)=O)c4)nc2-3)cc1` [Compound I-11] has an IC50 (Itk [1]) of less than 1000 nM.

For `CN1CCC(Nc2nc3c(s2)-c2nc(Nc4cccc(S(N)(=O)=O)c4)ncc2CC3)CC1` [III-35], the Ki (Itk [2]) was less than 1000 nM.

In the case of `NC1CCN(C(=O)c2cc3c(ccc4cnc(Nc5ccccc5)nc43)s2)C1` (centres unmarked) [Compound V-54], the Ki (Itk [2]) is reported as less than 1000 nM.

`CC(C)(C)C(=O)OCc1nc2c(s1)-c1nc(Nc3cccc(S(N)(=O)=O)c3)ncc1CC2` [III-31] was tested, and the Ki (Itk [2]) was less than 1000 nM.

Work on `COc1cccc(-c2cc3c(s2)CCc2cnc(Nc4ccc(S(N)(=O)=O)cc4)nc2-3)c1` [Compound I-18] yielded an IC50 (Itk [1]) of less than 1000 nM.

`Nc1cccc(Nc2ncc3ccc4sc(C(=O)N5CCOCC5)cc4c3n2)c1` [Compound V-51] showed a Ki (Itk [2]) of less than 1000 nM.

For `CC(C)(C)OC(=O)NC1CCN(C(=O)c2cc3c(ccc4cnc(Nc5cccc(S(N)(=O)=O)c5)nc43)s2)C1` (centres unmarked) [Compound V-47], the Ki (Itk [2]) was less than 1000 nM.

In the case of `NS(=O)(=O)c1cccc(Nc2ncc3c(n2)-c2cc(-c4cccs4)sc2CC3)c1` [Compound I-8], the IC50 (Itk [1]) is reported as less than 1000 nM.

`Cc1nc2ccc3cnc(Nc4cccc(S(N)(=O)=O)c4)nc3c2s1` [II-35] was tested, and the Ki (Itk [2]) was less than 1000 nM.

`O=C(c1cc2c(ccc3cnc(Nc4ccccc4)nc32)s1)N1CCOCC1` [Compound V-52] showed a Ki (Itk [2]) of less than 1000 nM.

`N#Cc1cccc(-c2cc3c(s2)CCc2cnc(Nc4cccc(S(N)(=O)=O)c4)nc2-3)c1` [Compound I-12] showed an IC50 (Itk [1]) of less than 1000 nM.

`NS(=O)(=O)c1cccc(Nc2ncc3c(n2)-c2cc(-c4ccsc4)sc2CC3)c1` [Compound I-5] showed an IC50 (Itk [1]) of less than 1000 nM.

`CC(C)(C)OC(=O)NCCCNC(=O)c1cc2c(ccc3cnc(Nc4cccc(S(N)(=O)=O)c4)nc32)s1` [Compound V-39] was tested, and the Ki (Itk [2]) was less than 1000 nM.

For `NS(=O)(=O)c1cccc(Nc2ncc3ccc4nc(C(=O)N5CCNCC5)sc4c3n2)c1` [II-13], the Ki (Itk [2]) was less than 1000 nM.

For `COc1cccc(-c2cc3c(s2)CCc2cnc(Nc4cccc(S(N)(=O)=O)c4)nc2-3)c1` [Compound I-2], the IC50 (Itk [1]) was less than 1000 nM.

`NS(=O)(=O)c1cccc(Nc2ncc3c(n2)-c2ccsc2CC3)c1` [Compound I-21] showed an IC50 (Itk [1]) of less than 1000 nM.

Work on `NS(=O)(=O)c1cccc(Nc2ncc3c(n2)-c2sc(N4CCCCC4)nc2CC3)c1` [III-34] yielded a Ki (Itk [2]) of less than 1000 nM.

With `CCN(CC)c1nc2ccc3cnc(Nc4cccc(S(N)(=O)=O)c4)nc3c2s1` [II-38] the Ki (Itk [2]) was less than 1000 nM.

Work on `NS(=O)(=O)c1cccc(Nc2ncc3c(n2)-c2cc(-c4cccc([N+](=O)[O-])c4)sc2CC3)c1` [Compound I-13] yielded an IC50 (Itk [1]) of less than 1000 nM.

`CN1CCN(C(=O)c2cc3c(ccc4cnc(Nc5cccc(S(N)(=O)=O)c5)nc43)s2)CC1` [Compound V-40] showed a Ki (Itk [2]) of less than 1000 nM.

`CC(C)(C)OC(=O)N1CCN(C(=O)c2cc3c(ccc4cnc(Nc5cccc(S(N)(=O)=O)c5)nc43)s2)CC1` [Compound V-38] gave a Ki (Itk [2]) of less than 1000 nM.

In the case of `CN(C)CCNC(=O)c1cc2c(ccc3cnc(Nc4cccc(S(N)(=O)=O)c4)nc32)s1` [Compound V-42], the Ki (Itk [2]) is reported as less than 1000 nM.

`NS(=O)(=O)c1cccc(Nc2ncc3c(n2)-c2cc(-c4ccccc4Cl)sc2CC3)c1` [Compound I-7] gave an IC50 (Itk [1]) of less than 1000 nM.

In the case of `NS(=O)(=O)c1cccc(Nc2ncc3ccc4sc(C(=O)N5CCNCC5)cc4c3n2)c1` [Compound V-4], the Ki (Itk [2]) is reported as less than 1000 nM.

Compound `NS(=O)(=O)c1cccc(Nc2ncc3c(n2)-c2cc(-c4cccc(Cl)c4)sc2CC3)c1` [Compound I-15] has an IC50 (Itk [1]) of less than 1000 nM.

`NS(=O)(=O)c1cccc(Nc2ncc3c(n2)-c2sc(CO)nc2CC3)c1` [III-38] gave a Ki (Itk [2]) of less than 1000 nM.

In the case of `Cc1nc2c(s1)-c1nc(Nc3cccc(S(N)(=O)=O)c3)ncc1CC2` [III-4], the Ki (Itk [2]) is reported as less than 1000 nM.

With `COc1cccc(-c2cc3c(s2)CCc2cnc(Nc4cccc(O)c4)nc2-3)c1` [Compound I-19] the IC50 (Itk [1]) was less than 1000 nM.

`COc1ccccc1-c1cc2c(s1)CCc1cnc(Nc3cccc(S(N)(=O)=O)c3)nc1-2` [Compound I-9] gave an IC50 (Itk [1]) of less than 1000 nM.

With `CCN(CC)c1nc2c(s1)-c1nc(Nc3cccc(S(N)(=O)=O)c3)ncc1CC2` [III-33] the Ki (Itk [2]) was less than 1000 nM.

For `COc1cccc(OC)c1-c1cc2c(s1)CCc1cnc(Nc3cccc(S(N)(=O)=O)c3)nc1-2` [Compound I-14], the IC50 (Itk [1]) was less than 1000 nM.

`Nc1cccc(Nc2ncc3ccc4sccc4c3n2)c1` [II-34] was tested, and the Ki (Itk [2]) was less than 1000 nM.

`CN(CCNC(=O)c1cc2c(ccc3cnc(Nc4cccc(S(N)(=O)=O)c4)nc32)s1)C(=O)OC(C)(C)C` [Compound V-41] showed a Ki (Itk [2]) of less than 1000 nM.

`NC1CCN(C(=O)c2cc3c(ccc4cnc(Nc5cccc(S(N)(=O)=O)c5)nc43)s2)C1` (centres unmarked) [Compound V-49] was tested, and the Ki (Itk [2]) was less than 1000 nM.

With `CC1(C)Cc2cnc(Nc3cccc(S(N)(=O)=O)c3)nc2-c2ccsc21` [Compound I-41] the Ki (Itk [2]) was less than 1000 nM.

In the case of `NC1CCN(C(=O)c2cc3c(ccc4cnc(Nc5cccc(S(N)(=O)=O)c5)nc43)s2)CC1` [Compound V-48], the Ki (Itk [2]) is reported as less than 1000 nM.

Work on `NS(=O)(=O)c1cccc(Nc2ncc3ccc4sc(C(=O)N5CCCCC5)cc4c3n2)c1` [Compound V-36] yielded a Ki (Itk [2]) of less than 1000 nM.

Compound `Cc1nc2c(s1)CCc1cnc(Nc3cccc(S(N)(=O)=O)c3)nc1-2` [IV-4] has a Ki (Itk [2]) of less than 1000 nM.

With `NCCCNC(=O)c1cc2c(ccc3cnc(Nc4cccc(S(N)(=O)=O)c4)nc32)s1` [Compound V-45] the Ki (Itk [2]) was less than 1000 nM.
